Results: patent publication US20230356105A1, “TETRAAZADODECANE BASED CHELATING AGENTS FOR SEPARATION OF RARE EARTH ELEMENTS AND METHOD THEREFOR” (Ustav Organicke Chemie a Biochemie AV CR V.V.I., priority 2020, published 2023)
Several values for one entry are separate records, joined by “and”; a condition that tells them apart may be missing. Equal entries are not always repeated. Marks after values point to notes of the source that are not given here.

Assays:
[1] = Separation of Ho/Er mixture by repeated precipitation using L1 (Example 11); type: physicochemical; settings: for Precipitate concentration [mM] Ho: dissolved to 200 μL
Description: Stock solutions were pipetted into round-bottom 2 mL Eppendorf tubes as follows: • 1. 10 μL 100 mM aqueous solution of HoCl3 • 2. 10 μL 100 mM aqueous solution of ErCl3 • 3. 20 μL 100 mM aqueous solution of compound L1. • 4. 60 μL 2 M MOPS buffer pH=7. • 5. 140 μL water.
Nine identical reaction mixtures were prepared and split into three groups: A, B, C. Each tube was equipped with one PTFE-coated magnetic stir bar and sealed, and the mixture was stirred on a magnetic stirrer for 24 hours at room temperature. The tubes were then centrifuged and the supernatants were carefully pipetted out and transferred to a new set of tubes. Precipitates from group A were dissolved by addition of 200 μL 0.1 M HCl. The concentrations of Ho and Er in the supernatants and in the re-dissolved precipitates from group A were determined by ICP-OES. Precipitates from groups B and C were further processed as follows: the precipitates were dissolved by addition of 100 μL 0.1 M HCl, and the pH of the solutions were then raised from 1 to 7 by addition of an equimolar amount of 0.2 M NaOH. The total volume was adjusted to 200 μL by addition of water. The prepared mixtures were subjected to a second round of precipitation and were stirred on a magnetic stirrer for 24 hours at room temperature. The tubes were again centrifuged and the supernatants were carefully pipetted out and transferred to a new set of tubes. Samples from group B were treated identically to the samples from group A previously, and the Ho and Er content in the supernatants and precipitates were determined by ICP-OES. Precipitates from group C were subjected to a third cycle of precipitation followed by Ho and Er content determination analogously to the procedures described above. The resulting absolute concentrations of both metals in the supernatants and precipitates, as well as calculated values of the separation factor Er/Ho according to the formula (concentration of Er in supernatant/concentration of Er in precipitate)/(concentration of Ho in supernatant/concentration of Ho in precipitate), are summarized in Table 5.

[2] = Separation of Eu/Yb mixture by precipitation from water/acetonitrile solutions using L5 (Example 17); type: physicochemical; settings: for Precipitate concentration [mM] Eu / Precipitate concentration [mM] Yb: dissolved to 100 μL
Description: 3 reaction mixtures, differing in acetonitrile content (group A=10%, group B=20%, group C=50%) were prepared in plastic round-bottom 2 mL Eppendorf tubes, each in duplicate. For group A, the stock solutions were pipetted as follows: 5 μL 100 mM aqueous solution of EuCl3; 5 μL 100 mM aqueous solution YbC13; 10 μL 100 mM aqueous solution of compound L5; 20 μL 3 M MOPS buffer pH=7; 50 μL water; 10 μL acetonitrile.
For group B, the stock solutions were pipetted as follows: 5 μL 100 mM aqueous solution of EuCl3; 5 μL 100 mM aqueous solution YbC13; 10 μL 100 mM aqueous solution of compound L5; 20 μL 3 M MOPS buffer pH=7; 40 μL water; 20 μL acetonitrile. For group C, the stock solutions were pipetted as follows: 5 μL 100 mM aqueous solution of EuCl3; 5 μL 100 mM aqueous solution YbC13; 10 μL 100 mM aqueous solution of compound L5; 20 μL 3 M MOPS buffer pH=7; 10 μL water; 50 μL acetonitrile.
Each tube was equipped with one PTFE-coated magnetic stir bar and sealed, and the mixture was stirred on a magnetic stirrer for 24 hours at room temperature. The tubes were then centrifuged and the supernatants were carefully pipetted out and transferred to a new set of tubes. To the precipitate was added 100 μL 1 M HCl and mixture was stirred until full dissolution (overnight at room temperature, pH=0). Concentrations of Eu and Yb in the supernatants and in the re-dissolved precipitates were determined by ICP-OES. The resulting absolute concentrations of both metals in the supernatants and precipitates, as well as calculated values of the separation factor Yb/Eu according to the formula from Example 11), are summarized in Table 11.

[3] = group A, 1st precipitation, mean
[4] = group A, 10% acetonitrile, mean of duplicates
[5] = group B, 20% acetonitrile, mean of duplicates
[6] = group C, 50% acetonitrile, mean of duplicates

Compound: O=C(O)CN1CCN(CC(=O)O)CCN(Cc2ccccc2)CCN(CC(=O)O)CC1 [L1, 2,2′,2″-(10-benzyl-1,4,7,10-tetraazacyclododecane-1,4,7-triyl)triacetic Acid]
- average of the separation factor values Er/Ho ([1]; all Er/Ho mixtures): 2.73
- Separation factor Er/Ho ([1]; group A, 1st precipitation): 2.30 and 2.59 and 2.55
- Supernatant concentration [mM] Ho ([1]; group A, 1st precipitation): 0.44 mM and 0.40 mM and 0.46 mM
- Precipitate concentration [mM] Ho ([1]; group A, 1st precipitation): 4.72 mM and 4.31 mM and 4.29 mM
- Precipitate concentration [mM] Ho [1, 3]: 4.44 mM
- Supernatant concentration [mM] Ho [1, 3]: 0.43 mM
- Separation factor Er/Ho ([1]; group B, 2nd precipitation): 3.10 and 2.68 and 3.02
- Supernatant concentration [mM] Ho ([1]; group B, 2nd precipitation): 0.58 mM and 0.51 mM and 0.44 mM
- Precipitate concentration [mM] Ho ([1]; group B, 2nd precipitation): 4.07 mM and 4.24 mM and 4.20 mM
- Precipitate concentration [mM] Ho ([1]; group B, 2nd precipitation, mean): 4.17 mM
- Separation factor Er/Ho ([1]; group C, 3rd precipitation): 2.97 and 2.30 and 3.06
- Precipitate concentration [mM] Ho ([1]; group C, 3rd precipitation): 3.23 mM and 2.65 mM
- Precipitate concentration [mM] Ho ([1]; group C, 3rd precipitation, mean): 3.04 mM

Compound: O=C(O)CN1CCN(CC(=O)O)CCN(Cc2cccc3ccccc23)CCN(CC(=O)O)CC1 [L5, 2,2′,2″-(10-(naphthalene-1-ylmethyl)-1,4,7,10-tetraazacyklododekane-1,4,7-triyl)triacetic acid]
- Supernatant concentration [mM] Eu ([2]; group A, 10% acetonitrile): 0.58 mM and 0.35 mM
- Supernatant concentration [mM] Yb ([2]; group A, 10% acetonitrile): 4.55 mM and 4.42 mM
- Precipitate concentration [mM] Eu ([2]; group A, 10% acetonitrile): 2.78 mM and 2.98 mM
- Precipitate concentration [mM] Yb ([2]; group A, 10% acetonitrile): 0.29 mM and 0.36 mM
- Precipitate concentration [mM] Eu [2, 4]: 2.88 mM
- Precipitate concentration [mM] Yb [2, 4]: 0.32 mM
- Supernatant concentration [mM] Eu [2, 4]: 0.47 mM
- Supernatant concentration [mM] Yb [2, 4]: 4.48 mM
- Supernatant concentration [mM] Eu ([2]; group B, 20% acetonitrile): 0.45 mM and 0.63 mM
- Supernatant concentration [mM] Yb ([2]; group B, 20% acetonitrile): 3.99 mM and 4.71 mM
- Precipitate concentration [mM] Eu ([2]; group B, 20% acetonitrile): 3.16 mM and 2.95 mM
- Precipitate concentration [mM] Yb ([2]; group B, 20% acetonitrile): 0.38 mM and 0.41 mM
- Precipitate concentration [mM] Eu [2, 5]: 3.06 mM
- Precipitate concentration [mM] Yb [2, 5]: 0.40 mM
- Supernatant concentration [mM] Eu [2, 5]: 0.54 mM
- Supernatant concentration [mM] Yb [2, 5]: 4.35 mM
- Supernatant concentration [mM] Eu ([2]; group C, 50% acetonitrile): 1.51** mM and 0.79** mM
- Supernatant concentration [mM] Yb ([2]; group C, 50% acetonitrile): 6.29** mM and 5.77** mM
- Precipitate concentration [mM] Eu ([2]; group C, 50% acetonitrile): 3.22 mM and 3.90 mM
- Precipitate concentration [mM] Yb ([2]; group C, 50% acetonitrile): 0.42 mM and 0.37 mM
- Precipitate concentration [mM] Eu [2, 6]: 3.56 mM
- Precipitate concentration [mM] Yb [2, 6]: 0.39 mM
- Supernatant concentration [mM] Eu [2, 6]: 1.15 mM
- Supernatant concentration [mM] Yb [2, 6]: 6.03 mM
